The target of series [1] is T1, NudC (NudC^Mab; MAB_3513c) (Mycobacteroides abscessus, UniProt A0A0U1C370).
T1 construct: native full-length protein in M. abscessus cells, compared with isogenic nudC deletion; functional homodimer
Description: HPLC/MS of metabolite extracts, wild type versus nudC deletion strain. It is filed as cell-based. Particulars: adduct formed in cells from ethionamide (256 ug/mL, 3 h, 37 C); no purified enzyme assay.

Series [2] concerns the molecule itself. The series is described as follows: SEC; HiLoad 16/600 Superdex 75 pg, 20 mM Tris-HCl (pH 7.5), 150 mM NaCl, 1 mM 1,4-dithiothreitol, 4°C, 1 mL/min; retention times compared to molecular weight standards. On the technique in general: In gel filtration, larger molecules generally elute earlier.

A word on the stoichiometry N: it is the number of molecules, sites or subunits per partner or assembly.

`CCc1cc(C(=O)C2C=CN([C@@H]3O[C@H](COP(=O)(O)OP(=O)(O)OC[C@H]4O[C@@H](n5cnc6c(N)ncnc65)[C@H](O)[C@@H]4O)[C@@H](O)[C@H]3O)C=C2C(N)=O)ccn1` (some centres unmarked) [ETH-NAD adduct]: in series [1], the “HPLC/MS of metabolite extracts, wild type versus nudC deletion strain” value was “nudC encodes a functional NudC that hydrolyzes ETH-NAD adduct”.

B1: Mycobacterium abscessus NADH pyrophosphatase NudC (MAB_3513c), wild type (enzyme)
chain: MTFRLRNIPLLSRVGLDRADELRSNPEELAKGWAEAGLITLDVRGRVNIVDGQVVIEDAARIGDQPPEHAVFLGRIPGGRHVWAVRADLDEDSAPLLDLRRSGQLFDDTSAALLATAMAMLAWHDNAGYSPVDGSPTIPAKGGWVRVNSATGQEEFPRTDPAIICLVHDGGDRAVLGRQKFWPERMFSLLAGFVEAGESLEACVAREVAEEVGLTVTDVQYLGSQPWPFPRSIMLGFHAIGDPSQPFAFNDGEIAEADWFTRAEVRSALEAGDWTTASDSRLMLPGSISIAREIVESWAYAGEEPPAGRP
notes: NADH pyrophosphatase NudC of Mycobacterium abscessus, gene MAB_3513c (nudC); The strain used in the study is M. abscessus subsp. abscessus GZ002 (genome GenBank CP034181); also called Wt NudC; source: E. coli BL21 (λDE3), pET-28a, purified (his-tag protein purification kit)
Take B1: the “stoichiometry N” value in series [2] amounted to 2.
